“And” between values parts separate entries of the source, which are not always exact repeats. Equal values may be shown once.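 How tested: cells in 96-well plates exposed to compound for 48 hours at five concentrations. The concentration for 50% growth inhibition is given as GI50. Definition used: TGI = concentration required for complete inhibition of growth.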
Legend:
Test in all cases: DTP human tumour cell line panel, 48 h
OVCAR-4 ovarian = system: OVCAR-4 ovarian
BT-549 breast = system: BT-549 breast
RPMI-8226 leukemia = system: RPMI-8226 leukemia
NCI/ADR-RES ovarian = system: NCI/ADR-RES ovarian
A498 renal = system: A498 renal
SW-620 colon = system: SW-620 colon
M14 melanoma = system: M14 melanoma
MDA-MB-231 breast = system: MDA-MB-231 breast
MDA-MB-435 = system: MDA-MB-435
SNB-75 CNS = system: SNB-75 CNS

| Compound | GI50 (OVCAR-4 ovarian) | TGI (OVCAR-4 ovarian) | GI50 (BT-549 breast) | TGI (BT-549 breast) | GI50 (RPMI-8226 leukemia) | TGI (RPMI-8226 leukemia) | GI50 (NCI/ADR-RES ovarian) | TGI (NCI/ADR-RES ovarian) | GI50 (A498 renal) | TGI (A498 renal) | GI50 (SW-620 colon) | TGI (SW-620 colon) | GI50 (M14 melanoma) | TGI (M14 melanoma) | GI50 (MDA-MB-231 breast) | TGI (MDA-MB-231 breast) | GI50 (MDA-MB-435) | TGI (MDA-MB-435) | GI50 (SNB-75 CNS) | TGI (SNB-75 CNS) |
| --- | --- | --- | --- | --- | --- | --- | --- | --- | --- | --- | --- | --- | --- | --- | --- | --- | --- | --- | --- | --- |
| CC(C)(C)NC(=O)[C@H]1CC[C@H]2[C@@H]3CC[C@H]4NC(=O)C=C[C@]4(C)[C@H]3CC[C@]12C | > 100 µM | > 100 µM | 81.9 µM and > 100 µM | > 100 µM | 42.8 µM and 67.2 µM | > 100 µM | > 100 µM | > 100 µM | 54.2 µM | > 100 µM | > 100 µM | > 100 µM | > 100 µM | > 100 µM | > 100 µM | > 100 µM | > 100 µM | > 100 µM | > 100 µM | > 100 µM |
| O=C(Nc1cccc(-n2cc(-c3ccncc3)c(-c3ccc(O)c(Cl)c3)n2)c1)c1cc(C(F)(F)F)cc(C(F)(F)F)c1 | 3.31 µM | > 50 µM | 4.34 µM | 46.6 µM | 3.31 µM | 33.1 µM | 4.72 µM | > 50 µM | 9.2 µM | > 50 µM | 12.2 µM | > 50 µM | 3.3 µM | > 50 µM | 0.889 µM | 2.17 µM | 4.43 µM | > 50 µM | 2.35 µM | > 50 µM |
| CC(c1ccccc1)[C@@H](C(=O)Nc1ccc(I)cc1F)N1C(=O)N[C@H](c2ccc(OC[C@H](O)CO)cc2)C1=O (some centres not stated) | 8.97 µM | > 25 µM | 9.17 µM | > 23.7 µM | 11.9 µM | > 25 µM | > 25 µM | > 25 µM | 0.541 µM | 2.3 µM | 1.09 µM | > 25 µM | 0.0707 µM | 5.74 µM | 1.56 µM | > 25 µM | 0.0817 µM | > 25 µM | > 11.1 µM | > 25 µM |
| Nc1nnnc2nc[nH]c12 | 0.547 µM | > 100 µM | 1.03 µM | > 25.2 µM | 0.245 µM | > 85.8 µM | 0.742 µM | > 26 µM | 1.87 µM | 15.3 µM | 0.78 µM | > 100 µM | 0.568 µM | 4.02 µM | 0.597 µM | > 100 µM | 0.542 µM | 2.57 µM | – | > 100 µM |
| CCN(CC)c1ccc2nc3c4ccccc4c(=O)cc-3n(-c3ccccc3)c2c1 | 1.2 µM | 15.1 µM | 1.95 µM | 5.06 µM | 0.49 µM | 2.58 µM | 2.34 µM | 7.86 µM | 0.653 µM | 4.59 µM | 2.89 µM | 13.6 µM | 1.91 µM | 3.8 µM | 2.22 µM | 8.2 µM | 0.899 µM | 3.46 µM | 2.34 µM | 12.7 µM |
| C=C1C(=O)O[C@H]2[C@H]1CC/C(Cn1cc(-c3cccc(Cl)c3)nn1)=C\CC[C@@]1(C)O[C@@H]21 | 1.09 µM | 2.44 µM | 0.778 µM | 2.1 µM | 0.506 µM | 3.36 µM | 2.39 µM | 8.39 µM | 1.52 µM | 2.97 µM | 0.33 µM | 1.2 µM | 0.798 µM | 2.2 µM | 1.09 µM | 2.91 µM | 0.591 µM | 1.98 µM | 1.16 µM | 2.39 µM |
| COc1ccc2nc3cc([N+](=O)[O-])ccc3c(NNc3ccccc3)c2c1 | 11.6 µM | 36.1 µM and > 100 µM | 15.9 µM | 35.7 µM and > 100 µM | 4.8 µM | 46.7 µM and > 73.3 µM | 12.8 µM | 55.1 µM and > 100 µM | – | 13.2 µM | 19.8 µM | > 100 µM | 24.2 µM | 75.2 µM and > 100 µM | 5.69 µM | 30 µM and 54.2 µM | 13.4 µM | 35.3 µM and > 100 µM | 15.6 µM | 35.7 µM and > 100 µM |
| ClCc1ccc(Cn2cnc3c(Cl)ncnc32)cc1 | – | > 25.7 µM | 21.9 µM | 45.8 µM | 12.2 µM | 33.5 µM | 10.8 µM | 25.2 µM | 29.4 µM | 50.4 µM | 7.67 µM | 19.4 µM | 9.84 µM | 19 µM | 10.4 µM | 20.8 µM | 13 µM | 23.3 µM | > 42 µM | > 67 µM |
| O=c1c2ccccc2nc(-c2ccccc2Cl)n1-c1nnc(C(F)(F)F)s1 | 3.15 µM | > 100 µM | 3.36 µM | 10.9 µM | 2.26 µM | 8.13 µM | 3.13 µM | > 100 µM | 1.77 µM | 5.07 µM | 3.4 µM | 15.9 µM | 4.17 µM | 23.7 µM | 2.59 µM | 9.38 µM | 3.19 µM | 53.1 µM | 3.47 µM | > 100 µM |
| Nc1cc(C(F)(F)F)c(-c2cc(N3CCOCC3)nc(N3CCOCC3)n2)cn1 | 1.4 µM and 1.27 µM | > 9.01 µM and 29 µM | 0.558 µM and 0.727 µM | > 7.16 µM and 6.67 µM | 1.31 µM and 1.47 µM | > 23.1 µM | 0.753 µM and 0.856 µM | 3.45 µM and > 21.5 µM | 0.189 µM and 0.205 µM | 0.713 µM and 1.09 µM | 1 µM and 0.717 µM | > 100 µM | 0.669 µM and 0.644 µM | 4.04 µM and 3.88 µM | 1.26 µM and 2.06 µM | > 8.48 µM and 11.9 µM | 0.275 µM and 0.29 µM | 1.03 µM and 1.32 µM | 0.179 µM and 0.377 µM | 1.46 µM and 2.02 µM |
| Cc1ccc(NC(=O)Nc2c(Cl)cccc2Cl)cn1 | 65 µM | > 100 µM | 59.1 µM | > 100 µM | 9.16 µM | > 100 µM | 4.46 µM | 70.3 µM | 12.1 µM | > 100 µM | 4.24 µM | > 100 µM | 12 µM | > 100 µM | 7.66 µM | > 100 µM | 1.96 µM | 4.69 µM | 5.88 µM | > 100 µM |

From PubChem BioAssay (NCI)
